Consider five compounds from ChEMBL document CHEMBL1201862, “PubChem BioAssay data set” (2004).

The structures appear in SMILES notation. Structures can show the parent of a compound that is named as a salt. The source made the active and inactive calls. Bounds are passed on as bounds.

As usually defined, the AC50 is the concentration giving half of the maximal activity seen.

Test [1] deals with T1, Replicative DNA helicase DnaB (Mycobacterium tuberculosis, UniProt P9WMR3).
T1 sequence (P9WMR3 whole entry): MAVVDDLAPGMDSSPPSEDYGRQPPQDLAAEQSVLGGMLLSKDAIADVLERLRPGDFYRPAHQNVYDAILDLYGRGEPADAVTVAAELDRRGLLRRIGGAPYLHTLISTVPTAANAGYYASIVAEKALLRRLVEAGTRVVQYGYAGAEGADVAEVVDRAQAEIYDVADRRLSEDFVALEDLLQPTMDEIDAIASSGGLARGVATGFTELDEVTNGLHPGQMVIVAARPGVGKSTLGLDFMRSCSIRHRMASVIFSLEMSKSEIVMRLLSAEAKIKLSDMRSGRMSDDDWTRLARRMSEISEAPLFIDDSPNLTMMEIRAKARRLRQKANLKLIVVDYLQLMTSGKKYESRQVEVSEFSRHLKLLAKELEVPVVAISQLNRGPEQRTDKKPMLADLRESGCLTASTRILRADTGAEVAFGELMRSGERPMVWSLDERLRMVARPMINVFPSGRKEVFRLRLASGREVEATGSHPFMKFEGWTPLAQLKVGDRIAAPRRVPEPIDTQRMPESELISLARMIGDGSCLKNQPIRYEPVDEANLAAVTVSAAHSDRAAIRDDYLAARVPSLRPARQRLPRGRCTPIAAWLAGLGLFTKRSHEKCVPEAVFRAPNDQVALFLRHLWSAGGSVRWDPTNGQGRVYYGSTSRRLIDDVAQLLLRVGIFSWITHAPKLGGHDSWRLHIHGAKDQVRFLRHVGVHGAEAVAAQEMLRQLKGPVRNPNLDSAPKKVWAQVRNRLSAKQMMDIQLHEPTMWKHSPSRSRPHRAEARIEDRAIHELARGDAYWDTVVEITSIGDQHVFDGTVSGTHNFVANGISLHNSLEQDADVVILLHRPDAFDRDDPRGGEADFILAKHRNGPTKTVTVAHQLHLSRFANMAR
The test is described as follows: DnaB intein splicing inhibitors, dose response, biochemical, cell-free fluorescence (AID 449749). Format: functional.

A further test deals with T2, Aminopeptidase N (Plasmodium falciparum FcB1/Columbia, UniProt O96935).
T2 sequence (O96935 whole entry): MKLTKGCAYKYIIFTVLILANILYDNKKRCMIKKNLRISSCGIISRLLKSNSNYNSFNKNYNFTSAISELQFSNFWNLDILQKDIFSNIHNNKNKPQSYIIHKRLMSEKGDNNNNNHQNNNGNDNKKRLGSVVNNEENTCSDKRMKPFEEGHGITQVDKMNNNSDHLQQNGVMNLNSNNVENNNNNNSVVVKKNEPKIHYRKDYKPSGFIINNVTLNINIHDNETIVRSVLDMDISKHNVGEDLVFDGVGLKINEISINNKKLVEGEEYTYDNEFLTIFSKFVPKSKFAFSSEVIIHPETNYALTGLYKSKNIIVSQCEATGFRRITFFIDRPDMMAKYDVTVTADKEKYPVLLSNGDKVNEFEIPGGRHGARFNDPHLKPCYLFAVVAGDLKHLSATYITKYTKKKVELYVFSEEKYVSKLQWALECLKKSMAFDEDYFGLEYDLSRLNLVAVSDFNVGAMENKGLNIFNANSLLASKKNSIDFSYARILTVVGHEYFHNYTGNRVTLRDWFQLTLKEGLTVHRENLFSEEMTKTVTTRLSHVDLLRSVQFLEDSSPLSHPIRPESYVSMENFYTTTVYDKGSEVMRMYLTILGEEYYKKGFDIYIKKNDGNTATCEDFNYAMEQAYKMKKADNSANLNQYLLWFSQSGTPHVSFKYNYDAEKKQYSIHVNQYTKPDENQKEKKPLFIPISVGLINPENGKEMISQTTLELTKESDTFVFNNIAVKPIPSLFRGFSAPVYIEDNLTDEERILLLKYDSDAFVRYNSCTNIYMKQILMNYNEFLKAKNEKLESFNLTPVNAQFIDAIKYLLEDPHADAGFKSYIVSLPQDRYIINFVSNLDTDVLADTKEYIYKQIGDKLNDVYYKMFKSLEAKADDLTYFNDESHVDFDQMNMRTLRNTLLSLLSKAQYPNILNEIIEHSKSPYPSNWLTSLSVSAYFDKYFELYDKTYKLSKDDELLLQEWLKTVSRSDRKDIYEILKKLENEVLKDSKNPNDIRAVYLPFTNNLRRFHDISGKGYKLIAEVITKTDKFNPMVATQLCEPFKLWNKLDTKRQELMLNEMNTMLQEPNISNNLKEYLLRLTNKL
The test can be described thus: malaria alanyl aminopeptidase activity blockers – biochemical, fluorogenic H-Leu-NHMec substrate, 1536-well (AID 1445). On the set-up: species or system Plasmodium falciparum 3D7, 3D7.

For the next test, the target named is T3, Protein RecA (Mycobacterium tuberculosis, UniProt P9WHJ3).
T3 sequence (P9WHJ3 whole entry): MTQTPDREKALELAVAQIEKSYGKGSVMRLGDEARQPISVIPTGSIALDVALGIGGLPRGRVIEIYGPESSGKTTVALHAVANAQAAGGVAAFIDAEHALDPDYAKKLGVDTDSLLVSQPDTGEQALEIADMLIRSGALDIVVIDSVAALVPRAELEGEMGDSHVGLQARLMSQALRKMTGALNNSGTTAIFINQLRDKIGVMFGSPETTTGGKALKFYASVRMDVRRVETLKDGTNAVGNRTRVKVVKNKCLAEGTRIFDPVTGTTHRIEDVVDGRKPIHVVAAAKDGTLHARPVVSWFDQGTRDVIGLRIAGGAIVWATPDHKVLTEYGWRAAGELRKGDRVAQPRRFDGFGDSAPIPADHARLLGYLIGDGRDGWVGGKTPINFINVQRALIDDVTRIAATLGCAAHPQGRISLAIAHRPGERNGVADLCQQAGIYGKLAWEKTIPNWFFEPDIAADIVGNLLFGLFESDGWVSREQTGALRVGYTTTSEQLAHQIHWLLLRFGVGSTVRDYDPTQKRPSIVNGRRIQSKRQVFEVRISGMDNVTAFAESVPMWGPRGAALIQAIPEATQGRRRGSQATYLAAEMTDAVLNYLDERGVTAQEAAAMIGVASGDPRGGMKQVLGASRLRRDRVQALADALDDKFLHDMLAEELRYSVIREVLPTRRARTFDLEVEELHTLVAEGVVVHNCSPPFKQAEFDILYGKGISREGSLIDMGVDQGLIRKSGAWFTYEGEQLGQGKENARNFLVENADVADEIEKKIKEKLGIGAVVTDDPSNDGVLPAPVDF
The test is described as follows: Fluorescence Cell-Free Homogeneous Dose Retest to Identify Inhibitors of RecA-Intein Splicing Activity. [Related pubchem assays (depositor defined):AID2097, AID2223, AID489010, AID492950]. Type of test: functional.

Test [2] can be described thus: bead-based luminescence quenchers, dual-tagged ARNT – biochemical, AlphaScreen, cherry-pick, artefact control for ARNT-TACC3 interaction inhibitor project, dose response (AID 651705).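 Also: AlphaScreen bead proximity signal that flags compounds interfering with the detection technology; potency reflects signal decrease which marks the compound as an assay artifact.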 Type of test: functional.
Test [3] has as its target T4, Corticotropin-releasing factor receptor 2/Corticotropin-releasing factor-binding protein (Homo sapiens, UniProt P24387+Q13324).
T4 sequence (Q13324 whole entry): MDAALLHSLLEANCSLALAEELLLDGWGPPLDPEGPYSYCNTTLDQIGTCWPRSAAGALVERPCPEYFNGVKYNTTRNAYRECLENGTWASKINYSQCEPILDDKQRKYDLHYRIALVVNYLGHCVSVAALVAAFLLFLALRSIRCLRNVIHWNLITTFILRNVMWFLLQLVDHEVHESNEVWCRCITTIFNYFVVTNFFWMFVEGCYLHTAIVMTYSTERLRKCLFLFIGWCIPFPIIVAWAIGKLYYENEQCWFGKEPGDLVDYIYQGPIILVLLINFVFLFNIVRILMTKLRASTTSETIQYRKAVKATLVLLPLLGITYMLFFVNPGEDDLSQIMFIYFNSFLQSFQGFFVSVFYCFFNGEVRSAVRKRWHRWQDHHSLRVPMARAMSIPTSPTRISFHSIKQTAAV
T4 sequence (P24387 whole entry): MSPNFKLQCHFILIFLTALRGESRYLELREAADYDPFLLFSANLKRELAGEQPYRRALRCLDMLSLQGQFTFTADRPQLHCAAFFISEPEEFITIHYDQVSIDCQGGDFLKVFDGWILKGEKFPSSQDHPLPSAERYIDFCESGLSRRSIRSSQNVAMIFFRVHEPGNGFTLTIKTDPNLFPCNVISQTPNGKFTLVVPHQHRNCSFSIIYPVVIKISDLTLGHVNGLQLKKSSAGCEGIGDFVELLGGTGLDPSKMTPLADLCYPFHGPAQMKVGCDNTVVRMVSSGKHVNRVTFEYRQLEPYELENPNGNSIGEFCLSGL
The test can be described thus: Dose Response confirmation of uHTS hits for small molecule antagonists of the CRF-binding protein and CRF-R2 receptor complex. The note with it: read-out: IC50_Mean. Format: functional.

Test [4] in a line: blockers of CRF-binding protein–CRF-R2 complex – cell-based, uHTS hits, 384-well, dose response (AID 651639). Format: functional, Homo sapiens. As to conditions: read-out: IC50_Mean.
For test [5], the target named is T4, Corticotropin-releasing factor receptor 2/Corticotropin-releasing factor-binding protein. The test is described as follows: activators of CRF receptor 2 with binding protein – uHTS hits, confirmation (AID 602473). Type of test: functional. As to conditions: read-out: EC50_Mean.
A short description of test [6]: viability of PTEN-deleted HCT116 cells – cell-based, HCT116 PTEN knockout, dose response (AID 1047).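 Also: HCT116 colon tumor cells with PTEN knocked out; cells exposed to compound for 60 hours before readout; potency for loss of cell viability measured by luminescence.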 Type of test: functional.
Test [7] in a line: viability of HCT116 lacking mutant beta-catenin – cell-based, human colon tumor, dose response (AID 1045).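 Also: HCT116 colon tumor cells with beta catenin knocked out; cells exposed to compound for 60 hours.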 Format: functional.
For test [8], the target named is Heat shock protein HSP 90-alpha (Homo sapiens, UniProt P07900). Type of test: functional, organism-based.
For test [9], the target named is T5, Hepatocyte nuclear factor 4-alpha (Homo sapiens, UniProt P41235).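 Also: biochemical luminescence-based dose-response counterscreen measuring inhibition of HNF4 dimerization, run alongside a screen for blockers of ABHD5–perilipin-5 interaction; split luciferase complementation of HNF4 fusion proteins in cell lysate measuring dimerization.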
T5 sequence (P41235 whole entry): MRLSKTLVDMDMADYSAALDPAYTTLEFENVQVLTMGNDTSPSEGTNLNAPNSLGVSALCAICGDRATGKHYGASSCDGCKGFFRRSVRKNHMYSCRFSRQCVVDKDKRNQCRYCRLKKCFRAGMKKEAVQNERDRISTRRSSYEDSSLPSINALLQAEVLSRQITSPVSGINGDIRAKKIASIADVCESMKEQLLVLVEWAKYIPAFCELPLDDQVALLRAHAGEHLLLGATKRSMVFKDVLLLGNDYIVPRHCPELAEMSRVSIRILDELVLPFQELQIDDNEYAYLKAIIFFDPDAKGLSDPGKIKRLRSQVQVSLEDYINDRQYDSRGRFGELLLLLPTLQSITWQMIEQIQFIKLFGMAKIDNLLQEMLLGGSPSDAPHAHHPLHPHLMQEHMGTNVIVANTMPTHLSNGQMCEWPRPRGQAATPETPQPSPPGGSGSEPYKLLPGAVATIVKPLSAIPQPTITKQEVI
Type of test: functional, cell-based.

The next test concerns INS1. The test is described as follows: INS-1E survival protection against cytokine death – cell-based, luminescence, retest, dose response (AID 449756).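 Also: cell death triggered by IL-1 beta plus TNF-alpha plus IFN-gamma mixture; protective hits raise ATP signal compared with cytokine alone wells.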 Type of test: functional. As to conditions: Rattus norvegicus.
Test [10] is described as follows: Luminescence Cell-Based Dose Retest to Confirm Inhibitors of Cancer Stem Cells. [Related pubchem assays (depositor defined):AID2717, AID2721]. As to conditions: Homo sapiens. Format: functional.
A short description of test [11]: Trypanosoma cruzi growth suppression in host cells – NIH3T3 host cells, beta-gal luminescence, confirmation (AID 2044).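 Also: intracellular parasites grown in NIH/3T3 mouse fibroblasts as host cells; luminescent beta-galactosidase reporter signal from transgenic T. cruzi replicating inside host cells; inhibitors lower the luminescence signal.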 Format: functional, cell-based.
Test [12] can be described thus: NIH3T3 cell viability loss – ATP luminescence, mouse fibroblasts, counter-screen, dose response (AID 2010).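 Also: cells exposed to compound for about 90 hours before reading.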 Format: functional, cell-based. Background: Counterscreens check selectivity or assay interference.
The next test concerns Streptococcus. The test is described as follows: GAS UMAA2166 growth inhibition – luminescence, BacTiterGlo, counter-screen for streptokinase expression inhibitor project, dose response (AID 1915).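 Also: potency for reduction of bacterial viability or growth.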 Type of test: functional, organism-based.
Test [13] deals with Streptococcus sp. 'group A'. The test is described as follows: Streptococcus pyogenes SK(-)GAS viability under kanamycin – luminescence, BacTiterGlo, confirmation, counter-screen for streptokinase expression inhibitor project, dose response (AID 1900). Format: functional, organism-based.

As to `O=C1NC(=O)C(=NNc2cc([N+](=O)[O-])ccc2O)C(=O)N1`, the AC50 in test [1] was 4.84 µM (active); in test [2] it was 111 µM (active). The IC50 on Aminopeptidase N is 11.4 µM (active). Also, on Protein RecA, the EC50 was 3.79 µM (active).

For the compound `CC(=O)NC(Cc1ccc(C(C)C)cc1)C(=O)NC1CCN(C(=O)c2cccc(C)c2)CC1` (stereo unspecified), the IC50 in test [3] is 24.4 µM (active); in test [4], 10.8 µM (active). For the same compound, the EC50 in test [5] was > 53 µM (inactive).

Regarding `O=[N+]([O-])/C=C/c1cn(Cc2ccc(F)cc2)c2ccccc12`, the EC50 is 15.2 µM (active) in test [6] and 16.4 µM (active) in test [7]. Besides, the figures for the AC50 (in test [8]; with INS1; in [10]) were 8.8 µM (active), 16.9 µM (active) and 3.2 µM (active), respectively. Further, in [9], the IC50 was 4.49 µM (active).

Turning to `O=C1NC(=S)S/C1=C\c1cc(Cl)ccc1Cl`, the IC50 in test [3] is 2.87 µM (active); in [4], 9.52 µM (active). Further, in test [5], the EC50 was > 53 µM (inactive).

On to `C=C[C@]1(C)C[C@@H](OC(=O)CSCCN(CC)CC)[C@]2(C)[C@H](C)CC[C@]3(CCC(=O)[C@H]32)[C@@H](C)[C@@H]1O` [TIAMULIN FUMARATE], for which the EC50 was 1.75 µM (active) in test [11], > 60 µM (not active) in test [12], < 0.06 µM (active) with Streptococcus and < 0.06 µM (active) in test [13]. In addition, the IC50 in test [9] is 39.8 µM (inactive).
